For assay [1] the following is noted: in words, prior art; cited from earlier work.
Assay [2] has as its system morphine effect in rat tail flick. Description: Narcotic antagonist activity (modified rat tail flick test, antagonism of morphine). The format is in vivo, male albino Wistar rats. The settings on record: for ED50: Rattus norvegicus, ip, 20 min, test drug intraperitoneally, rats, ED80 dose of morphine s.c. ten minutes later, retested 20 minutes after morphine, read-out: AD50 (the source's name). On the procedure:
The narcotic anatagonist effects of test compounds were determined by a modification of the rat tail flick procedure of Harris and Pierson (J. Pharmacol. Exp. Ther. 143: 141 [1964]).
Male albino Wistar rats (100-120 g) were used for this study. A rat's tail is so placed so as to cover a photocell. Heat is applied by a lamp in a reflector with a timer being connected to the lamp and photocell so that the timer goes on when the light is turned on and is turned off when the photocell is uncovered. A rheostat, incorporated into a heating lamp, is used to adjust the intensity of the light fallng on the tail of the rat such that the rat's control reaction time is from two to four seconds. Animals with a control reaction time outside this range are rejected. The rheostat adjustment is made only if a significant proportion (more than 1 out of every 10 rats) of the reaction times are outside the range of 1.8 to 5.8 seconds. Groups of five rats were used each time, and two control times were determined at least 30 minutes apart. The test drug was given intraperitoneally and this was followed ten minutes later by an ED80 dose of morphine subcutaneously. The animals were retested at 20 minutes after the morphine injection. Control animals were given morphine only.
The data were calculated as follows: [formula]
The data were plotted on log-probit paper and AD50 values, i.e., the dose required to inhibit the morphine effect by 50% within 95% confidence limits, were determined by the method of Litchfield and Wilcoxon.
Background: In hot-plate and tail-flick tests a longer latency is read as antinociception.

Assay [3] deals with acetic acid induced writhing in mice. Description: Acetic acid mouse writhing test (analgesic effect). The format is in vivo, male CD-1 mice. The settings on record: for ED50: Mus musculus, sc, subcutaneous, mice, acetic acid i.p. 15 minutes post drug, writhes in 20 minute interval; for ED50/AD50: ratio of mouse writhing ED50 to rat tail flick AD50. On the procedure:
The analgesic effects of test compounds were determined in mice by use of the acetic acid writhing test described by B. J. R. Whittle, Brit. J. Pharmacol., 22: 296 (1964). In this test at least three groups of five male CD-1 mice each were given subcutaneous doses of the test drug dissolved in either distilled water or distilled water acidified with HCl depending on the solubility of the compound. In all cases, 0.4 milliliter of a 0.75% V/V acetic acid in distilled water solution was administered intraperitoneally 15 minutes post drug. The number of writhes in a 20 minute interval were determined and compared with the number of writhes in control groups which had received only acetic acid.
Percent inhibition of writhing was calculated as: [formula]
The ED50 dose, i.e., the dose required to reduce the number of writhes by 50%, was determined graphically from a plot of % inhibition as a probit versus log dose. Confidence limits of 95% were calculated on the basis of those results falling in the range 16-84% inhibition. See Litchfield, J. T. and Wilcoxon, F., J. Pharmacol. Exp. Ther., 96, 99-113, (1949).
On the technique in general: An intraperitoneal irritant provokes the stretching counted in writhing tests.

The source of these data is US4260617A, “17-Cyclopropylmethyl-14-hydroxy-3-methoxymorphinan-6-one and method of treating pain with it” (SISA, Incorporated, priority 1979, dated 1981).

`O=C1CCC2(O)C3Cc4ccc(O)cc4C2(CCN3CC2CC2)C1` (stereo not shown): in assay [1], the duration of action entry is “very long acting” and the “potency relative to A, cyclazocine or naloxone” value was “more potent than A (above), cyclazocine or naloxone”.

On to `COc1ccc2c(c1)[C@]13CCN(CC4CC4)[C@H](C2)[C@]1(O)CCC(=O)C3.Cl` [179-A-19, 17-cyclopropylmethyl-14-hydroxy-3-methoxymorphinan-6-one hydrochloride], for which the ED50 in assay [2] was 0.5 mg/kg. The “more potent as an analgesic, by a factor” value in assay [3] (179-A-19 versus 179-A-20) was “greater than 7”. Further, in assay [3], the ED50 came to 0.3 mg/kg and the ED50/AD50 is on record as 0.6.

With `Cl.O=C1CC[C@@]2(O)[C@H]3Cc4ccc(O)cc4[C@@]2(CCN3CC2CC2)C1` [179-A-20, 17-cyclopropylmethyl-3,14-dihydroxymorphinan-6-one hydrochloride], the “more potent in terms of narcotic antagonist activity, by a factor” value in assay [2] (179-A-20 versus 179-A-19) is listed as “about 6”. For the same compound, the results for the ED50 in assay [2] and in assay [3] were 0.082 mg/kg and 2.2 mg/kg, respectively. In assay [3], the ED50/AD50 is recorded as 26.83.

Take `Oc1ccc2c(c1)C13CCCCC1(O)C(C2)N(CC1CC1)CC3` (stereo not shown) [A]: the “analgesic / narcotic antagonist activity” value in assay [1] is given as “essentially a narcotic antagonist”.

With `Oc1ccc2c(c1)C13CCCCC1(O)C(C2)N(CC1CCC1)CC3` (stereo not shown) [B], in assay [1], the “analgesic / narcotic antagonist activity” value was “both analgesic and narcotic antagonist activity”.

Take `C[C@H]1[C@H]2Cc3ccc(O)cc3[C@]1(C)CCN2CC1CC1` [cyclazocine]: in assay [1], the “analgesic / narcotic antagonist activity” value is given as “mixed analgesic/narcotic antagonist activity”.
